Laboratory results: US9403830B2, “Inhibitors of leukotriene production” (Boehringer Ingelheim International GmbH, priority 2012, dated 2016)

Legend:
human LTA4 hydrolase = target: T1, human LTA4 hydrolase (Homo sapiens, UniProt P09960); experiment: LTA4H Enzyme assay (peptidase, Arg-AMC cleavage); type: biochemical; details: LTA4H enzyme 1 nM, Arg-AMC substrate 50 μM, room temperature 1 h, fluorescence 380/460 nm
T1 sequence (P09960 1-611): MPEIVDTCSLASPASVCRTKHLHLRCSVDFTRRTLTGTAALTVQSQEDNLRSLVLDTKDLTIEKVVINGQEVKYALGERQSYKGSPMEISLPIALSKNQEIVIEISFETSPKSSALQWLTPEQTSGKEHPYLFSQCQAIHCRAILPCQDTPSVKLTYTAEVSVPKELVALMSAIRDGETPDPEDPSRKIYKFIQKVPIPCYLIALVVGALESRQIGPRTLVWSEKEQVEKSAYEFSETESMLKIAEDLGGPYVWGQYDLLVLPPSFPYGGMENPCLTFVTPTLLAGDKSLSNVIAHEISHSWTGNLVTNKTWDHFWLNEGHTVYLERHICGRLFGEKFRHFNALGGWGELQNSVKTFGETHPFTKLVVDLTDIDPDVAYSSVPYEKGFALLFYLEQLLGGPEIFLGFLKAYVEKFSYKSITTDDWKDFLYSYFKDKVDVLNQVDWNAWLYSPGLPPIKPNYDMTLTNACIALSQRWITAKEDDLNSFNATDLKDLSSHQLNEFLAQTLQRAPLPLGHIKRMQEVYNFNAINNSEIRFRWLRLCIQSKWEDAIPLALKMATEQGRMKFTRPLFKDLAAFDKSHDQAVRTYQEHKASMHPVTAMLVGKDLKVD
Protocol: The compounds of the invention are assessed for the ability to interact with human LTA4 hydrolase in an enzymatic assay that measures the ability of the enzyme to cleave the peptide bond of arginyl-aminomethylcoumarin (Arg-AMC). LTA4H Enzyme (1 nM final), Arg-AMC substrate (50 μM final), and compound are combined in a reaction buffer (50 mM Tris-HCl (pH 7.5), 100 mM KCl, 0.5% bovine serum albumin) at room temperature for 1 h. The formation of product is assessed by measuring the fluorescence of aminomethylcoumarin product (excitation wavelength 380 nm/emission wavelength 460 nm). In general, the preferred potency range (IC50) of compounds in the LTA4H Enzyme assay is between 0.1 nM to 10 μM, the more preferred potency range is 0.1 nM to 0.1 μM, and the most preferred potency range is 0.1 nM to 10 nM.

[1] = tested on: LTB4 synthesis in human whole blood; experiment: human whole blood (HWB) assay, inhibition of LTB4 production; type: cell-based; details: heparinized human whole blood, calcimycin 20 μM stimulation, plasma LTB4
Protocol: The compounds of the invention are additionally tested in a human whole blood (HWB) assay to determine their ability to inhibit the synthesis of LTB4 in a cellular system. Compounds are combined with heparinized human whole blood and incubated for 15 minutes at 37° C. Calcimycin (20 μM final, prepared in phosphate-buffered saline, pH 7.4) is then added and the mixture is incubated for another 30 minutes at 37° C. The samples are centrifuged for 5 min at low speed (1500×g) and the plasma layer is removed. Plasma LTB4 concentrations are then measured using an antibody-based homogenous time-resolved fluorescence method (CisBio, Bedford, Mass.). In general, the preferred potency range (IC50) of compounds in the HWB assay is between 10 nM to 10 μM, the more preferred potency range is 10 nM to 1 μM, and the most preferred potency range is 10 nM to 100 nM.

Structure (SMILES)	IC50 (human LTA4 hydrolase) [nM]	IC50 [1] [nM]
O=C(CO)N1CCCC12CCN(Cc1ccc3cc(Oc4ccc(-c5ccn[nH]5)cn4)ccc3n1)CC2 [Example 50, 2-Hydroxy-1-(8-{6-[5-(2H-pyrazol-3-yl)-pyridin-2-yloxy]-quinolin-2-ylmethyl}-1,8-diaza-spiro[4.5]dec-1-yl)-ethanone]	2.8	1100
NC(=O)[C@@H](NCc1ccc2cc(Oc3ccc(-c4ccn[nH]4)cn3)ccc2n1)c1ccccc1 [Example 51, (S)-2-Phenyl-2-({6-[5-(2H-pyrazol-3-yl)-pyridin-2-yloxy]-quinolin-2-ylmethyl}-amino)-acetamide]	8.1	2200
c1cc(-c2ccc(Oc3ccc4[nH]c(CN5CCCC5)nc4c3)cc2)[nH]n1 [Example 52, 5-[4-(2H-Pyrazol-3-yl)-phenoxy]-2-pyrrolidin-1-ylmethyl-1H-benzoimidazole]	0.12	66
C[C@@H]1CN(Cc2nc3cc(Oc4ccc(-c5ccn[nH]5)cc4)ccc3[nH]2)C[C@H](C)O1 [Example 53, 2-((2R,6S)-2,6-Dimethyl-morpholin-4-ylmethyl)-5-[4-(2H-pyrazol-3-yl)-phenoxy]-1H-benzoimidazole]	0.096	67
c1cc(-c2ccc(Cc3ccc4nc(CN5CCCC5)[nH]c4c3)cc2)[nH]n1 [Example 54, 6-[4-(2H-Pyrazol-3-yl)-benzyl]-2-pyrrolidin-1-ylmethyl-1H-benzoimidazole]	0.13	94
C[C@H]1COC[C@H](C)N1Cc1nc2cc(Oc3ccc(-c4ccn[nH]4)cc3)ccc2[nH]1 [Example 55, 2-((3S,5S)-3,5-Dimethyl-morpholin-4-ylmethyl)-5-[4-(2H-pyrazol-3-yl)-phenoxy]-1H-benzoimidazole]	0.13	100
C[C@H]1CN(Cc2nc3ccc(Cc4ccc(-c5ccn[nH]5)cc4)cc3[nH]2)C[C@H](C)O1 [Example 56, 2-((2S,6S)-2,6-Dimethyl-morpholin-4-ylmethyl)-6-[4-(2H-pyrazol-3-yl)-benzyl]-1H-benzoimidazole]	0.18	110
O=C(N1CCN(Cc2nc3cc(Oc4ccc(-c5ccn[nH]5)cc4)ccc3[nH]2)CC1)C(F)(F)F [Example 57, 2,2,2-Trifluoro-1-(4-[5-[4-(2H-pyrazol-3-yl)-phenoxy]-1H-benzoimidazol-2-ylmethyl]-piperazin-1-yl)-ethanone]	0.13	110
c1cc(-c2ccc(Oc3ccc4[nH]c(CN5C[C@@H]6CC[C@@H](C5)O6)nc4c3)cc2)[nH]n1 [Example 58, (1S,5S)-3-{5-[4-(2H-Pyrazol-3-yl)-phenoxy]-1H-benzoimidazol-2-ylmethyl}-8-oxa-3-aza-bicyclo[3.2.1]octane]	0.13	120
c1cc(-c2ccc(Oc3ccc4[nH]c(C5(N6CCOCC6)CC5)nc4c3)cc2)[nH]n1 [Example 59, 2-(1-Morpholin-4-yl-cyclopropyl)-5-[4-(2H-pyrazol-3-yl)-phenoxy]-1H-benzoimidazole]	0.13	130
c1cc(-c2ccc(Cc3ccc4nc(CN5CCOCC5)[nH]c4c3)cc2)[nH]n1 [Example 60, 2-Morpholin-4-ylmethyl-6-[4-(2H-pyrazol-3-yl)-benzyl]-1H-benzoimidazole]	0.23	140
COCCN1CCN(Cc2nc3cc(Oc4ccc(-c5ccn[nH]5)cc4)ccc3[nH]2)CC1 [Example 61, 2-[4-(2-Methoxy-ethyl)-piperazin-1-ylmethyl]-5-[4-(2H-pyrazol-3-yl)-phenoxy]-1H-benzoimidazole]	0.21	140
C[C@H]1COCCN1Cc1nc2cc(Oc3ccc(-c4ccn[nH]4)cc3)ccc2[nH]1 [Example 62, 2-((S)-3-Methyl-morpholin-4-ylmethyl)-5-[4-(2H-pyrazol-3-yl)-phenoxy]-1H-benzoimidazole]	0.13	150
FC(F)(F)CN1CCN(Cc2nc3cc(Oc4ccc(-c5ccn[nH]5)cc4)ccc3[nH]2)CC1 [Example 63, 5-[4-(2H-Pyrazol-3-yl)-phenoxy]-2-[4-(2,2,2-trifluoro-ethyl)-piperazin-1-ylmethyl]-1H-benzoimidazole]	0.11	150
CC(C)N1CCN(Cc2nc3cc(Oc4ccc(-c5ccn[nH]5)cc4)ccc3[nH]2)CC1 [Example 64, 2-(4-Isopropyl-piperazin-1-ylmethyl)-5-[4-(2H-pyrazol-3-yl)-phenoxy]-1H-benzoimidazole]	0.14	180
Cc1noc(C2CCN(Cc3nc4cc(Oc5ccc(-c6ccn[nH]6)cc5)ccc4[nH]3)CC2)n1 [Example 65, 2-[4-(3-Methyl-[1,2,4]oxadiazol-5-yl)-piperidin-1-ylmethyl]-5-[4-(2H-pyrazol-3-yl)-phenoxy]-1H-benzoimidazole]	0.15	180
O[C@H]1CCN(Cc2nc3ccc(Oc4ccc(-c5ccn[nH]5)cc4)cc3[nH]2)C1 [Example 66, (S)-1-{6-[4-(2H-Pyrazol-3-yl)-phenoxy]-1H-benzoimidazol-2-ylmethyl}-pyrrolidin-3-ol]	0.14	240
O=C1CCC(c2cn3cc(Oc4ccc(-c5ccn[nH]5)cc4)ccc3n2)CN1 (centres unmarked) [Example 67, 5-{6-[4-(2H-Pyrazol-3-yl)-phenoxy]-imidazo[1,2-a]pyridin-2-yl}-piperidin-2-one]	1.4	480
O=C1CC[C@H](Oc2ccc3cc(Oc4ccc(-c5ccn[nH]5)cc4)ccc3n2)CN1 [Example 68, (S)-5-{6-[4-(2H-Pyrazol-3-yl)-phenoxy]-quinolin-2-yloxy}-piperidin-2-one]	4.2	590
O=C(O)c1nc2cc(Oc3ccc(-c4cc[nH]n4)cc3)ccc2[nH]1 [Example 69, 5-[4-(1H-Pyrazol-3-yl)-phenoxy]-1H-benzoimidazole-2-carboxylic acid]	3.9	650
CC(C)(C)C(=O)N1CCN(Cc2nc3cc(Oc4ccc(-c5ccn[nH]5)cc4)ccc3[nH]2)CC1 [Example 70, 2,2-Dimethyl-1-(4-{5-[4-(2H-pyrazol-3-yl)-phenoxy]-1H-benzoimidazol-2-ylmethyl}-piperazin-1-yl)-propan-1-one]	0.16	230
OC(C1CCN(Cc2nc3cc(Oc4ccc(-c5ccn[nH]5)cc4)ccc3[nH]2)CC1)C(F)(F)F (centres unmarked) [Example 71, 2,2,2-Trifluoro-1-(1-{5-[4-(2H-pyrazol-3-yl)-phenoxy]-1H-benzoimidazol-2-ylmethyl}-piperidin-4-yl)-ethanol]	0.14	260
c1cc(-c2ccc(Oc3ccc4[nH]c(CN5CC6(COC6)C5)nc4c3)cc2)[nH]n1 [Example 72, 2-(2-Oxa-6-aza-spiro[3.3]hept-6-ylmethyl)-5-[4-(2H-pyrazol-3-yl)-phenoxy]-1H-benzoimidazole]	0.14	320
c1cncc(Cc2nc3cc(Oc4ccc(-c5ccn[nH]5)cc4)ccc3[nH]2)c1 [Example 73, 5-[4-(2H-Pyrazol-3-yl)-phenoxy]-2-pyridin-3-ylmethyl-1H-benzoimidazole]	0.36	330
CC[C@H](C)N(C)Cc1nc2cc(Oc3ccc(-c4ccn[nH]4)cc3)ccc2[nH]1 [Example 74, ((S)-sec-butyl)-methyl-{5-[4-(2H-pyrazol-3-yl)-phenoxy]-1H-benzoimidazol-2-ylmethyl}-amine]	0.099	67
